According to patent US10258634B2, “Ciclesonide for the treatment of airway disease in horses” (Boehringer Ingelheim Vetmedica GmbH, priority 2012, dated 2019):
Each block holds one molecule with its values, some of them ahead of it.

Tests used:
in vivo = details: horse, concentration of C21-C21-desisobutyrylciclesonide in plasma
RAO horses [1] = test: Budesonide study: moldy hay challenge, lung function variables and clinical score; format: in vivo
Description: Nozzle A and a […]® inhaler device not available commercially is used in the study.

RAO horses [2] = test: 2nd ciclesonide study: moldy hay challenge, lung function variables and weighted clinical score; format: in vivo; details: dexamethasone 0.066 mg/kg per os once daily; after 14 days
Description: (§1) The commercially available […]® is used in the study.

RAO horses [3] = test: Segmented neutrophil and lymphocyte counts in the 1st and 2nd ciclesonide studies; format: in vivo; details: for lymphocytes count / segmented neutrophil count: after administration of dexamethasone 0.066 mg/kg per os; for Lymphocytes / Segmented neutrophils: dexamethasone 0.066 mg/kg per os once daily 14 days, mean, n=8
Method: as §1
The segmented neutrophil counts and the lymphocyte counts are determined in the studies above: ciclesonide treatment versus dexamethasone treatment.
Concentration of segmented neutrophils and lymphocytes on day (D): D0, D14 and D21 in the treatment groups of dexamethasone and different doses of ciclesonide (n=8) (mean (SEM)

RAO horses [4] = test: 2nd ciclesonide study: moldy hay challenge, serum cortisol; format: in vivo; details: dexamethasone 0.066 mg/kg per os once daily; days 3, 5, 7, 10, 14 and 17; p<0.0001
Description: as §1

RAO horses [5] = test: 1st ciclesonide study: moldy hay challenge, lung function variables and breathing effort score; format: in vivo; details: dexamethasone 0.066 mg/kg per os once daily; after 14 days; p<0.0001
[6] = taken orally; cited from earlier work
RAO horses [7] = test: 1st ciclesonide study: moldy hay challenge, serum cortisol; format: in vivo; details: dexamethasone 0.066 mg/kg per os once daily; days 3, 5, 7, 10, 14 and 17; p<0.0001

Structure (SMILES): C[C@]12C=CC(=O)C=C1CC[C@@H]1[C@@H]2[C@@H](O)C[C@@]2(C)[C@H]1C[C@H]1O[C@@H](C3CCCCC3)O[C@]12C(=O)CO [C21-C21-desisobutyrylciclesonide]
concentration at 4 h (in vivo): < 0.25 nM

Structure (SMILES): CCCC1O[C@@H]2C[C@H]3[C@@H]4CCC5=CC(=O)C=C[C@]5(C)[C@H]4[C@@H](O)C[C@]3(C)[C@]2(C(=O)CO)O1 (stereo partly drawn) [budesonide]
clinical score (breathing effort score) compared to pretreatment values (RAO horses [1]; all three budesonide doses (450/900/1800 μg/horse twice daily), after 7 and 14 days, p=0.002 to p<0.0001): significantly reduced
all lung function variables (transpulmonary pressure, lung resistance, lung elastance) compared to pretreatment values (RAO horses [1]; budesonide 1800 μg/horse ex RESPIMAT twice daily per inhalation, after 14 days, p≤0.0001): significantly reduced
lung function variables, difference to dexamethasone group (RAO horses [1]; budesonide 1800 μg/horse ex RESPIMAT twice daily, after 7 or 14 days): no significant difference
clinical score, difference to dexamethasone group (RAO horses [1]; budesonide 900 and 1800 μg/horse ex RESPIMAT twice daily, after 7 and 14 days): no significant difference

lymphocytes count (RAO horses [3]; 1st ciclesonide study): decreased
segmented neutrophil count (RAO horses [3]; 1st ciclesonide study): increased
lymphocytes count (RAO horses [3]; 2nd ciclesonide study): decreased
segmented neutrophil count (RAO horses [3]; 2nd ciclesonide study): increased
neutrophilia and lymphopenia (RAO horses [3]; after treatment with dexamethasone (1st and 2nd ciclesonide study)): Neutrophilia and lymphopenia is observed
Lymphocytes (RAO horses [3]; 1st ciclesonide study, D 0): 2.1e+09 L⁻¹
Segmented neutrophils (RAO horses [3]; 1st ciclesonide study, D 0): 4.77e+09 L⁻¹
Lymphocytes (RAO horses [3]; 1st ciclesonide study, D 14): 1.71e+09 L⁻¹
Segmented neutrophils (RAO horses [3]; 1st ciclesonide study, D 14): 6.16e+09 L⁻¹
Lymphocytes (RAO horses [3]; 1st ciclesonide study, D 21): 1.76e+09 L⁻¹
Segmented neutrophils (RAO horses [3]; 1st ciclesonide study, D 21): 4.27e+09 L⁻¹
Lymphocytes (RAO horses [3]; 2nd ciclesonide study, D 0): 2.14e+09 L⁻¹
Segmented neutrophils (RAO horses [3]; 2nd ciclesonide study, D 0): 4.82e+09 L⁻¹
Lymphocytes (RAO horses [3]; 2nd ciclesonide study, D 14): 1.73e+09 L⁻¹
Segmented neutrophils (RAO horses [3]; 2nd ciclesonide study, D 14): 6.23e+09 L⁻¹
Lymphocytes (RAO horses [3]; 2nd ciclesonide study, D 21): 1.73e+09 L⁻¹
Segmented neutrophils (RAO horses [3]; 2nd ciclesonide study, D 21): 4.82e+09 L⁻¹
serum cortisol levels (RAO horses [4]): significantly reduced
serum cortisol levels in comparison to any of the ciclesonide treatment groups (RAO horses [4]): significantly reduced
serum cortisol levels compared to pretreatment values (RAO horses [7]): significantly reduced
serum cortisol levels in comparison to any of the ciclesonide treatment groups (RAO horses [7]): significantly reduced
Structure (SMILES): C[C@@H]1C[C@H]2[C@@H]3CCC4=CC(=O)C=C[C@]4(C)[C@@]3(F)[C@@H](O)C[C@]2(C)[C@@]1(O)C(=O)CO [dexamethasone]
all lung function variables (ΔPL, RL, EL) compared to pretreatment values (RAO horses [2]): significantly reduced
weighted clinical score compared to pretreatment values (RAO horses [2]): significantly reduced
clinical score (breathing effort score) compared to pretreatment values (RAO horses [1]; dexamethasone 0.066 mg/kg per os once daily, after 7 and 14 days): significantly reduced
all lung function variables compared to pretreatment values (RAO horses [1]; dexamethasone 0.066 mg/kg per os once daily, after 14 days, p≤0.0001): significantly reduced
all lung function variables (ΔPL, RL, EL) compared to pretreatment values (RAO horses [5]): significantly reduced
potency relative to prednisone [6]: 7 times
potency relative to the naturally occurring hormone cortisol [6]: 27 times
